Reference: ChEMBL document CHEMBL1201862, “PubChem BioAssay data set” (2004)
The source made the active and inactive calls.

Legend:
[1] = target: T1, High affinity choline transporter 1 (Homo sapiens, UniProt Q9GZV3); assay: human choline transporter blockers, potency – cell-based, 5-point CRC, membrane potential dye, dose response (AID 504840); assay type: functional
T1 sequence (Q9GZV3 whole entry): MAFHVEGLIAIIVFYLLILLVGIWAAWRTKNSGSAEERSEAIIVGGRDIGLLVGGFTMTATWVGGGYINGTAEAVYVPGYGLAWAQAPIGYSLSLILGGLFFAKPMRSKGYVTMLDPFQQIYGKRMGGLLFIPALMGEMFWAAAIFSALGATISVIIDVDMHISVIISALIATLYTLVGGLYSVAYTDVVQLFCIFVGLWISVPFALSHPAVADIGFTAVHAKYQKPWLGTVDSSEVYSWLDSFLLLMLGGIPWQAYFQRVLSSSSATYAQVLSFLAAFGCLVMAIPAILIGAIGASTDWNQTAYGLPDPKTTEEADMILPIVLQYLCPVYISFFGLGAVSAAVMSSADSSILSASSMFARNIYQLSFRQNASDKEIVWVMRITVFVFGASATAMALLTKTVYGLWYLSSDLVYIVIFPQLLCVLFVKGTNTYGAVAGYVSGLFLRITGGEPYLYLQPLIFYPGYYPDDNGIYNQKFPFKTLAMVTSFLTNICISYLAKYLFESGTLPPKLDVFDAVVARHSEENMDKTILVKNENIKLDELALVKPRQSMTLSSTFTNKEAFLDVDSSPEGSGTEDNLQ

[2] = target: T2, Intestinal-type alkaline phosphatase (Homo sapiens, UniProt P09923); assay: activation of human intestinal alkaline phosphatase – biochemical, luminescent, uHTS hits, set 2, dose response (AID 488817); assay type: functional;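 note: potency of activators that raise enzyme activity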
T2 sequence (P09923 whole entry): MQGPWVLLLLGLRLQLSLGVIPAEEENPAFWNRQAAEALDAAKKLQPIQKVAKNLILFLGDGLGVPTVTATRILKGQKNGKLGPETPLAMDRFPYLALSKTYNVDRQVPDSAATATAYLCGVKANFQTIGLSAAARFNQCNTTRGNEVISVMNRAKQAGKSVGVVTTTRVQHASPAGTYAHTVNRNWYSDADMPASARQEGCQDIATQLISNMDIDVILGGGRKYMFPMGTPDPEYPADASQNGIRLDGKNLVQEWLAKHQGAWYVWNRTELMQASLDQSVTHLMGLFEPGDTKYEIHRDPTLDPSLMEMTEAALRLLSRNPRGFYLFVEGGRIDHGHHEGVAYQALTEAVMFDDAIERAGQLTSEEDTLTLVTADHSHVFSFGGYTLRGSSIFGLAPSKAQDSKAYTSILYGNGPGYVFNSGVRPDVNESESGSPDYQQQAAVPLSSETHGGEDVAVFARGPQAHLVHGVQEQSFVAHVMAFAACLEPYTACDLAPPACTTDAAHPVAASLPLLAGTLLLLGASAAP

[3] = target: Intestinal-type alkaline phosphatase (Mus musculus, UniProt P24822); assay: PubChem AID 488874; assay type: functional
Intestinal-type alkaline phosphatase (Mus musculus, UniProt P24822), sequence (P24822 whole entry): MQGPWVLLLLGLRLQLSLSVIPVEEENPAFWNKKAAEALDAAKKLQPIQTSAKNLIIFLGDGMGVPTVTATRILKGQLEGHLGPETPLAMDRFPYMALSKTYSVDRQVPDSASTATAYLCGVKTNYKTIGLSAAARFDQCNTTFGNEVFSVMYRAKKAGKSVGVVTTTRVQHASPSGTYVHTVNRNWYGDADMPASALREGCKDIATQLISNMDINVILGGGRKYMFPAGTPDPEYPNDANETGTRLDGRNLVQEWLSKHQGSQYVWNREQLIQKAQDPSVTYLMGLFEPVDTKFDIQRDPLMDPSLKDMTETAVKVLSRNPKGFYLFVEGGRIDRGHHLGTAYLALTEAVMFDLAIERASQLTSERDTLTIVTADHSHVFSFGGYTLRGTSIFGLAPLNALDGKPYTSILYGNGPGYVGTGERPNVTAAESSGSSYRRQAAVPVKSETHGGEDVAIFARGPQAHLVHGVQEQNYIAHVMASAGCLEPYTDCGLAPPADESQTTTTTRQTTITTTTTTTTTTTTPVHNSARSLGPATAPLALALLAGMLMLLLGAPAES

[4] = target: T2, Intestinal-type alkaline phosphatase; assay: human intestinal alkaline phosphatase activators, dose response, biochemical, luminescence, uHTS hits (AID 463120); assay type: functional
[5] = target: T3, Alkaline phosphatase, tissue-nonspecific isozyme (Homo sapiens, UniProt P05186); assay: activation of tissue-nonspecific alkaline phosphatase – biochemical, TNAP isozyme, human IAP uHTS hits, selectivity assay for human IAP activator project, dose response (AID 488886); assay type: functional;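 note: potency of compounds raising TNAP activity as a selectivity check on IAP activators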
T3 sequence (P05186 whole entry): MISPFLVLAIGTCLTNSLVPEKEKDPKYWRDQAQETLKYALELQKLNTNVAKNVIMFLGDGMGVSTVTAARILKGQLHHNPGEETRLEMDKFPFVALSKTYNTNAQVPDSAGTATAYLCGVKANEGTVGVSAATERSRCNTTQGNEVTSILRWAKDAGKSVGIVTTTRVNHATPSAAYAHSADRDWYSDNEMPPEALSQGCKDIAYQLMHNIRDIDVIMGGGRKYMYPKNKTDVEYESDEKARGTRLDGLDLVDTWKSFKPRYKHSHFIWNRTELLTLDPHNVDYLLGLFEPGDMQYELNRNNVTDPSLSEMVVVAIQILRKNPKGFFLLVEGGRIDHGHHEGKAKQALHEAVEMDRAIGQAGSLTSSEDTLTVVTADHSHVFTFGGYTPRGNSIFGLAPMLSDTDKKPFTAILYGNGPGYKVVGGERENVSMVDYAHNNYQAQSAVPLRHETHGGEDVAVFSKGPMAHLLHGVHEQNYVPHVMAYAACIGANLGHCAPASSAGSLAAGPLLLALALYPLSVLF

[6] = target: T4, Runt-related transcription factor 1/Core-binding factor subunit beta (Homo sapiens, UniProt Q01196+Q13951); assay: disruptors of Runt domain/CBFb-SMMHC interaction – biochemical, FRET, Cerulean-Runt, Venus-CBFb-SMMHC, uHTS, […] (AID 1434); assay type: protein assay
T4 sequence (Q01196 whole entry, the tested form may be a part): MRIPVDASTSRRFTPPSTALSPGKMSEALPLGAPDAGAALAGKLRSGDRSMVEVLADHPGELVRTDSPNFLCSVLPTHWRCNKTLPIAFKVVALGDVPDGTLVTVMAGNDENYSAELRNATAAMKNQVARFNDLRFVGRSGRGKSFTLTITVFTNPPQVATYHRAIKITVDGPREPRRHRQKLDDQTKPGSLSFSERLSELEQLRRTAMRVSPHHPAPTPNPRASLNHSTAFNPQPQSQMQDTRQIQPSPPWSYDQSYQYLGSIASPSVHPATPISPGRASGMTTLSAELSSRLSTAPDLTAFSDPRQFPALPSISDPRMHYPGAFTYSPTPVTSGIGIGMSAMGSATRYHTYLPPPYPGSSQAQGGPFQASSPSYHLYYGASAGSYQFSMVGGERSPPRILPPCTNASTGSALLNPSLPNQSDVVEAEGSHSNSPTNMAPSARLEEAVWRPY
T4 sequence (Q13951 whole entry, the tested form may be a part): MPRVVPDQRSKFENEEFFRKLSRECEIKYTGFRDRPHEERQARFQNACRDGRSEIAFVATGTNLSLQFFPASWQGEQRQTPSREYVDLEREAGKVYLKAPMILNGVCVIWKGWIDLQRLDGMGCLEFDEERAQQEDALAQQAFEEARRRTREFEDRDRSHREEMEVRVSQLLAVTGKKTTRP

[7] = target: T4, Runt-related transcription factor 1/Core-binding factor subunit beta; assay: Runt domain/CBFb-SMMHC interaction disruptors – biochemical, TR-FRET (AID 1438); assay type: protein assay
[8] = viability loss of HMLE_sh_eGFP cells – cell-based, luminescence, counter-screen for HMLE_sh_ECad selective toxicity project, dose response (AID 463074); assay type: functional, Homo sapiens;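 note: HMLE human mammary epithelial cells expressing control shRNA against eGFP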
[9] = Luminescence Cell-Based Dose Retest to Confirm Inhibitors of Cancer Stem Cells. [Related pubchem assays (depositor defined):AID2717, AID2721]; assay type: functional; conditions: Homo sapiens

Compound	IC50 [1]	EC50 [2]	IC50 [3]	EC50 [4]	EC50 [5]	further results
CSCCC(NS(=O)(=O)c1ccc(C)cc1)C(=O)NNC(=O)c1csc(N2CCOCC2)n1 (centres undefined)	–	14.1 µM (active)	66.6 µM (active)	9.84 µM (active)	19.1 µM (active)	–
CCCc1cc2c(OC(=O)CC)c(-c3ccc(C(=O)OCC)o3)c(=O)oc2cc1OC	–	–	–	–	–	IC50 [6]: 5.51 µM (active); IC50 [7]: 7.94 µM (active)
Cc1cc(=O)[nH]c(-n2[nH]c3c(c2=O)CCCC3)n1	–	19.8 µM (active)	> 100 µM (inactive)	9.58 µM (active)	12.2 µM (active)	–
CC(=O)c1cccc(NS(=O)(=O)c2cc(-c3cnc(C4CC4)o3)ccc2C)c1	–	–	–	–	–	AC50 [8]: 25 µM (active); AC50 [9]: 1.03 µM (active)

Continued, in another order:

IC50 [1]	Compound	EC50 [2]	IC50 [3]	EC50 [4]	EC50 [5]	further results
12.9 µM (active)	CN(C)C(=O)N1CCN(S(=O)(=O)c2ccc3ccccc3c2)CC1	–	–	–	–	–
18.2 µM (active)	O=C(c1cccc(OC2CCN(Cc3ccc(F)cc3Cl)CC2)c1)N1CCCC1	–	–	–	–	–
